Calls of active or inactive are those of the source.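 The calls were made as follows: active = compounds giving half or more protection of infected cells from virus-caused growth loss, again on retest; inactive = the rest.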 Where a SMILES comes first, the peptide text is derived from it.
System: CEM cells HIV-1 protection, formazan growth assay
Test: NCI AIDS Antiviral Assay
Details: for IC50: measured here: growth of uninfected CEM cells
In short: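 Human CEM cells, uninfected and HIV-1-infected, exposed to five drug concentrations; growth measured by soluble formazan assay and scored as percent protection from infection, with protecting compounds retested.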

Row | SMILES | EC50 [µM] | IC50 [µM] | outcome
1 | CCCCCCc1nn2c(-c3ccncc3)nnc2s1 | > 100 | 52.5 | 
2 | CN(C)CCNc1ccc2c(=O)n(CCN(C)C)c(=O)n3c4ccc(O)cc4c(=O)c1c23 | > 0.2 | 0.0107 | 
3 | CCN(CC)C(=O)N1CN(c2ccccc2)C2(CCN(CCCSc3ccc(F)cc3)CC2)C1=O | > 200 | 9.77 | 
4 | C/C=C1\[C@H]2C=C(C)C[C@@]1(N)c1ccc(=O)[nH]c1[C@@H]2O | > 479 | > 479 | 
5 | NCCCCC(NC(=O)C(CO)NC(=O)C(N)Cc1cnc[nH]1)C(=O)NC(Cc1ccccc1)C(=O)NC(Cc1c[nH]c2ccccc12)C(=O)NC(Cc1c[nH]c2ccccc12)C(N)=O (stereo unspecified) (H-HSKFWW-NH2; configuration not given here) | > 50.1 | > 50.1 | 
6 | CN(C)CC/C(=N\Nc1c(F)c(F)c(F)c(F)c1F)c1ccccc1 |  |  | inactive
7 | Clc1ccc(C2=NOC(C3CCCCC3)C2)cc1 (stereo unspecified) | > 38 | > 38 | 
8 | CNC(=O)[C@H](Cc1ccccc1)NC(=O)N(CCC#N)CCN(C(=O)N[C@@H](Cc1ccccc1)C(=O)OC)c1ccccc1 | > 200 | > 200 | 
9 | C[C@@]12C[C@@H](c3ccccc3O1)N1Cc3ccccc3CSC1=N2 | > 200 | 49 | 
10 | CC(C)(C)OC(=O)NCCNCCNc1ccccc1 |  |  | inactive
11 | COc1cc(-c2nn3c(=O)n(-c4ccc(Cl)cc4)c(=O)nc3s2)cc(OC)c1OC | > 0.813 | > 0.813 | 
12 | CCOC(=O)c1c(NC(=S)Nc2ccc(Cl)cc2)sc2c1CCN(C)C2 | > 100 | > 100 | 
13 | Cc1cc(-n2c(C)ccc2C)no1 | > 200 | > 200 | 
14 | Cc1c2c(n3c(nc4ccccc43)c1C#N)SCC2 | > 200 | > 200 | 
15 | C1=C(c2ccccc2)C(OC2Oc3ccccc3C=C2c2ccccc2)Oc2ccccc21 (stereo unspecified) | > 31.6 | > 31.6 | 
16 | S=C1SCN(C(c2ccccc2)c2ccccc2)CN1C(c1ccccc1)c1ccccc1 | > 200 | 4.47 | 
17 | O=C(O)/C=C/SCCC(=O)O | > 1410 | > 1410 | 
18 | COc1ccc(NC(=O)CC(=O)n2nc(-c3ccccc3)c(N=Nc3ccccc3C(=O)O)c2-c2ccccc2)cc1 | > 17.8 | > 17.8 | 
19 | Cc1ccccc1-c1nc(/C=C2\C(=O)C=Cc3ccccc32)c(O)o1 | > 200 | > 200 | 
20 | CC(C)(C)OC(=O)Cn1ncn(NC(=O)Cc2ccccc2)c1=O | > 200 | > 200 | 
21 | O=C(Nc1nc2ccccc2s1)c1cc([N+](=O)[O-])ccc1Cl | > 200 | 3.8 | 

Row | SMILES | EC50 [µM] | IC50 [µM] | outcome
22 | C[N+](C)(Cc1ccco1)c1ccccc1 | > 3.16 | > 3.16 | 
23 | CCCc1cc(=O)oc2c3c(cc(OC(C)CI)c12)O[C@H](C)[C@@H](C)C3=O (stereo partly specified) | > 87.1 | 21.4 | 
24 | CC1=C(C(=O)Nc2ccccc2C)C(c2ccc(C3C(C(=O)Nc4ccccc4C)=C(C)NC(C)=C3C(=O)Nc3ccccc3C)cc2)C(C(=O)Nc2ccccc2C)=C(C)N1 |  |  | inactive
25 | COc1ccc(C23c4ccc(OC)cc4CC2(c2ccc([N+](=O)[O-])cc2)Cc2cc(OC)ccc23)cc1 (stereo unspecified) | > 200 | > 200 | 
26 | C=C1C(=O)OC2CC(C)C3(O)C=C(C(C)=O)C4(OC3CC12)C(=O)OC1CC(C)C2(/C=C\C(C)=O)OC2CC14 (stereo unspecified) | > 479 | 81.3 | 
27 | NCCCC[C@H](NC(=O)[C@H](CS)NC(=O)[C@@H](N)Cc1cnc[nH]1)C(=O)N[C@H](Cc1ccccc1)C(=O)N[C@@H](Cc1c[nH]c2ccccc12)C(=O)N[C@@H](Cc1c[nH]c2ccccc12)C(N)=O | > 200 | > 200 | 
28 | CC(=O)OC1[C@@H]2[C@@H](COC(c3c(F)cccc3Cl)N2OC(C)=O)O[C@H]1n1ccc(=O)[nH]c1=O (stereo partly specified) | > 200 | 115 | 
29 | NC1=CN(CCCO)C2=N/C(=C\c3ccco3)C(=O)N12 |  |  | inactive
30 | COc1ccc(C2N(c3ccc(C)c(N=C=O)c3)C(=O)N3C(c4ccc(OC)cc4)N(c4ccc(C)c(N=C=O)c4)C(=O)N23)cc1 (stereo unspecified) | > 200 | 12.6 | 
31 | CC12CCC3(C1)[C@H](CC2=O)C[C@@H](OC(=O)c1ccccc1)C1C(C)(CO)CCC[C@@]13C (stereo partly specified) | > 44.7 | 0.891 | 
32 | c1ccc(-c2nnc(-c3nn(-c4ccccc4)c4nc5ccccc5nc34)o2)cc1 |  |  | inactive
33 | CCOC(=O)c1cn(CC)c2ccc3ccsc3c2c1=O |  |  | inactive
34 | Cc1cc(C(O)(c2cc(C)c(O)c(C(=O)O)c2)c2cc(C)c(O)c(C(=O)O)c2)cc(C(=O)O)c1O | > 3.72 | > 3.72 | 
35 | O=C1Nc2cccnc2NC2=C1CSC2 | > 200 | > 200 | 
36 | CC1=C(C(=O)N(C)c2ccc(Cl)c(C(=O)OC(C)C)c2)SCCO1 | > 240 | 93.3 | 
37 | CCOC(=O)C(=Cc1cccc(C#N)c1)C(=O)OCC | > 132 | 8.51 | 
38 | O=C1CSC(c2ccccc2[N+](=O)[O-])N1c1ccc(-c2ccc(-n3c(-c4ccccc4)nc4ccccc4c3=O)cc2)cc1 (stereo unspecified) | > 200 | 95.5 | 
39 | C#CCCCCC#CC1CCCC1C1=CC(=O)c2ccccc21 (stereo unspecified) | > 100 | 6.03 | 
40 | N.N.N.N.[Co+3].[N-]=[N+]=[N-].[N-]=[N+]=[N-].[N-]=[N+]=[N-] |  |  | inactive
41 | N#CC1CC2(C(=O)C1=O)c1ccccc1-c1ccccc12 (stereo unspecified) |  |  | inactive
42 | COc1cc(C2c3cc4c(cc3OC3(N5CCCC5)CCCC23)OCO4)cc(OC)c1OC (stereo unspecified) | > 550 | 2.82 | 
